Results reported in patent publication US20070010671A1, “Novel quinazoline derivatives and methods of treatment related to the use thereof” (priority 2003, published 2007).

The compounds below were run against MCH receptor (Homo sapiens, UniProt Q99705) (assay: High throughput functional screening FLIPR/FDSS6000: inhibition of MCH-evoked intracellular Ca2+ changes). Details: class by percent of control at 10^-7 M or IC50.
Assay type: cell-based
Summary of the method: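 Constitutively active non-endogenous MCH-R cells; Fluo4-AM 4 μM, 2.5 mM probenecid, 1 hr, 37° C; cpd 3 min, 37° C; MCH 50 nM (antagonist mode); kinetic Ca2+ read Ex488/Em530, 290 s.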

SMILES	class
CN(C)c1nc(N[C@H]2CC[C@@H](CNC(=O)Nc3cccc(C#N)c3)CC2)nc2ccccc12 [compound 418, N-(3-cyanophenyl)-N′-[(cis-4-{[4-(dimethylamino)quinazolin-2-yl]amino}cyclohexyl)methyl]urea]	2 (Class 2: The value of percent of control at 10^−7 M was from 40% to 60% or the value of IC50 was from 50 nM to 200 nM.)
Cc1ccc2nc(-c3ccc(NC(=O)NC[C@H]4CC[C@@H](Nc5nc(N(C)C)c6ccccc6n5)CC4)cc3)sc2c1 [compound 771]	3 (Class 3: The value of percent of control at 10^−7 M was more than 60% or the value of IC50 was more than 200 nM.)
COc1ccc(NC(=S)N[C@H]2CC[C@@H](Nc3nc(N(C)C)c4ccccc4n3)CC2)c([N+](=O)[O-])c1 [compound 276]	3 (Class 3: The value of percent of control at 10^−7 M was more than 60% or the value of IC50 was more than 200 nM.)
CN(C)c1nc(N[C@H]2CC[C@@H](CNC(=O)Nc3c(Cl)cccc3C(F)(F)F)CC2)nc2ccccc12 [compound 488]	1 (Class 1: The value of percent of control at 10^−7 M was less than 40% or the value of IC50 was less than 50 nM.)
CN(C)c1nc(N[C@H]2CC[C@@H](CNC(=O)NCc3ccc(F)cc3)CC2)nc2ccccc12 [compound 553, N-[(cis-4-{[4-(dimethylamino)quinazolin-2-yl]amino}cyclohexyl)methyl]-N′-(4-fluorobenzyl)urea]	2 (Class 2: The value of percent of control at 10^−7 M was from 40% to 60% or the value of IC50 was from 50 nM to 200 nM.)
Cc1c(NC(=O)NC[C@H]2CC[C@@H](Nc3nc(N(C)C)c4ccccc4n3)CC2)cccc1[N+](=O)[O-] [compound 506, N-[(cis-4-{[4-(dimethylamino)quinazolin-2-yl]amino}cyclohexyl)methyl]-N′-(2-methyl-3-nitrophenyl)urea]	1 (Class 1: The value of percent of control at 10^−7 M was less than 40% or the value of IC50 was less than 50 nM.)
CN(C)c1nc(N[C@H]2CC[C@@H](CNC(=S)Nc3cccc(Br)c3)CC2)nc2ccccc12 [compound 581]	3 (Class 3: The value of percent of control at 10^−7 M was more than 60% or the value of IC50 was more than 200 nM.)
CN(C)c1nc(N[C@H]2CC[C@@H](NC(=S)Nc3ccc4c(c3)CCC4)CC2)nc2ccccc12 [compound 325, N-(2,3-dihydro-1H-inden-5-yl)-N′-(cis-4-{[4-(dimethylamino)quinazolin-2-yl]amino}cyclohexyl)thiourea]	2 (Class 2: The value of percent of control at 10^−7 M was from 40% to 60% or the value of IC50 was from 50 nM to 200 nM.)
COc1cccc(NC(=S)N[C@H]2CC[C@@H](Nc3nc(N(C)C)c4ccccc4n3)CC2)c1 [compound 228, N-(cis-4-{[4-(dimethylamino)quinazolin-2-yl]amino}cyclohexyl)-N′-(3-methoxyphenyl)thiourea]	2 (Class 2: The value of percent of control at 10^−7 M was from 40% to 60% or the value of IC50 was from 50 nM to 200 nM.)
Cc1cccc(CNC(=S)NC[C@H]2CC[C@@H](Nc3nc(N(C)C)c4ccccc4n3)CC2)c1 [compound 734]	3 (Class 3: The value of percent of control at 10^−7 M was more than 60% or the value of IC50 was more than 200 nM.)
CN(C)c1nc(N[C@H]2CC[C@@H](CNC(=O)Nc3ccc(OCc4ccccc4)cc3)CC2)nc2ccccc12 [compound 539]	3 (Class 3: The value of percent of control at 10^−7 M was more than 60% or the value of IC50 was more than 200 nM.)
CN(C)c1nc(N[C@H]2CC[C@@H](CNC(=S)Nc3ccc(OC(F)F)cc3)CC2)nc2ccccc12 [compound 653]	3 (Class 3: The value of percent of control at 10^−7 M was more than 60% or the value of IC50 was more than 200 nM.)
COc1ccc(NC(=S)NC[C@H]2CC[C@@H](Nc3nc(N(C)C)c4ccccc4n3)CC2)cc1OC [compound 628]	3 (Class 3: The value of percent of control at 10^−7 M was more than 60% or the value of IC50 was more than 200 nM.)
CN(C)c1nc(N[C@H]2CC[C@@H](CNC(=S)Nc3ccc(F)cc3F)CC2)nc2ccccc12 [compound 635]	3 (Class 3: The value of percent of control at 10^−7 M was more than 60% or the value of IC50 was more than 200 nM.)
CN(C)c1nc(N[C@H]2CC[C@@H](CNC(=O)NC34CC5CC(CC(C5)C3)C4)CC2)nc2ccccc12 (relative stereo) [compound 406]	3 (Class 3: The value of percent of control at 10^−7 M was more than 60% or the value of IC50 was more than 200 nM.)
CN(C)c1nc(N[C@H]2CC[C@@H](NC(=S)Nc3ccc(F)c(C(F)(F)F)c3)CC2)nc2ccccc12 [compound 236]	3 (Class 3: The value of percent of control at 10^−7 M was more than 60% or the value of IC50 was more than 200 nM.)
CN(C)c1nc(N[C@H]2CC[C@@H](CNC(=S)Nc3cccc(C(=O)O)c3)CC2)nc2ccccc12 [compound 686]	3 (Class 3: The value of percent of control at 10^−7 M was more than 60% or the value of IC50 was more than 200 nM.)
CN(C)c1nc(N[C@H]2CC[C@@H](CNC(=S)NCc3ccc(Cl)cc3)CC2)nc2ccccc12 [compound 695]	3 (Class 3: The value of percent of control at 10^−7 M was more than 60% or the value of IC50 was more than 200 nM.)
C=C(C)c1cccc(C(C)(C)NC(=O)NC[C@H]2CC[C@@H](Nc3nc(N(C)C)c4ccccc4n3)CC2)c1 [compound 441]	2 (Class 2: The value of percent of control at 10^−7 M was from 40% to 60% or the value of IC50 was from 50 nM to 200 nM.)
CN(C)c1nc(N[C@H]2CC[C@@H](NC(=S)NCCCN3CCOCC3)CC2)nc2ccccc12 [compound 392]	3 (Class 3: The value of percent of control at 10^−7 M was more than 60% or the value of IC50 was more than 200 nM.)
CN(C)c1nc(N[C@H]2CC[C@@H](CNC(=S)Nc3ccc4c(c3)OCCO4)CC2)nc2ccccc12 [compound 789]	3 (Class 3: The value of percent of control at 10^−7 M was more than 60% or the value of IC50 was more than 200 nM.)
COc1ccc(OC)c(NC(=S)NC[C@H]2CC[C@@H](Nc3nc(N(C)C)c4ccccc4n3)CC2)c1 [compound 636]	3 (Class 3: The value of percent of control at 10^−7 M was more than 60% or the value of IC50 was more than 200 nM.)
COc1ccc(NC(=O)NC[C@H]2CC[C@@H](Nc3nc(N(C)C)c4ccccc4n3)CC2)c(OC)c1 [compound 479]	3 (Class 3: The value of percent of control at 10^−7 M was more than 60% or the value of IC50 was more than 200 nM.)
CN(C)c1nc(N[C@H]2CC[C@@H](CNC(=S)Nc3ccc4c(c3)OCO4)CC2)nc2ccccc12 [compound 791]	3 (Class 3: The value of percent of control at 10^−7 M was more than 60% or the value of IC50 was more than 200 nM.)

Same assay, conditions: class by percent of control at 10^-7 M or by IC50; read-out: class

IC50 [µM]	SMILES
> 0.2	C=CCOC(=O)N[C@H]1CC[C@@H](Nc2nc(N(C)C)c3ccccc3n2)CC1 [compound 857]
> 0.2	CC(C)[C@@H]1CC[C@@H](C)C[C@H]1OC(=O)N[C@H]1CC[C@@H](Nc2nc(N(C)C)c3ccccc3n2)CC1 [compound 860]
< 0.05	COc1cc(COC(=O)N[C@H]2CC[C@@H](Nc3nc(N(C)C)c4ccccc4n3)CC2)c([N+](=O)[O-])cc1OC [compound 848]
> 0.2	CCCCCCCOc1ccc(NC(=O)N[C@H]2CC[C@@H](Nc3nc(N(C)C)c4ccccc4n3)CC2)cc1 [compound 825]
> 0.2	Cc1ccc(C)c(NC(=O)N[C@H]2CC[C@@H](Nc3nc(N(C)C)c4ccccc4n3)CC2)c1 [compound 82]
< 0.05	CN(C)c1nc(N[C@H]2CC[C@@H](NC(=O)Nc3c(Cl)c(Cl)cc(Cl)c3Cl)CC2)nc2ccccc12 [compound 72, N-(cis-4-{[4-(dimethylamino)quinazolin-2-yl]amino}cyclohexyl)-N′-(2,3,5,6-tetrachlorophenyl)urea]

Same assay, conditions: class by percent of control at 10^−7 M or by IC50; read-out: class

IC50 [µM]	SMILES
< 0.05	CN(C)c1nc(N[C@H]2CC[C@@H](C(=O)NCc3cc(F)c(F)cc3F)CC2)nc2ccccc12 [Example 1170, cis-4-{[4-(dimethylamino)quinazolin-2-yl]amino}-N-(2,4,5-trifluorobenzyl)cyclohexanecarboxamide]
> 0.2	CN(C)c1nc(N[C@H]2CC[C@@H](CNC(=O)C(O)c3ccc(F)c(F)c3)CC2)nc2ccccc12 (relative stereo) [Example 1095, 2-(3,4-difluorophenyl)-N-[(cis-4-{[4-(dimethylamino)quinazolin-2-yl]amino}cyclohexyl)methyl]-2-hydroxyacetamide]
< 0.05	CC(=O)Nc1cccc(C(=O)N[C@H]2CC[C@@H](Nc3nc(N(C)C)c4ccccc4n3)CC2)c1 [Example 1204, 3-(acetylamino)-N-(cis-4-{[4-(dimethylamino)quinazolin-2-yl]amino}cyclohexyl)benzamide]
> 0.2	CN(C)c1nc(N[C@H]2CC[C@@H](NC(=O)c3ccc(Oc4ccccc4Cl)nc3)CC2)nc2ccccc12 [Example 1051, 6-(2-chlorophenoxy)-N-(cis-4-{[4-(dimethylamino)quinazolin-2-yl]amino}cyclohexyl)nicotinamide]
> 0.2	CN(C)c1nc(N[C@H]2CC[C@@H](NC(=O)c3ccc(OC(F)(F)F)cc3)CC2)nc2cc(F)c(F)cc12 [Example 1211, N-(cis-4-{[4-(dimethylamino)-6,7-difluoroquinazolin-2-yl]amino}cyclohexyl)-4-(trifluoromethoxy)benzamide]
< 0.05	Cc1cc(C)cc(CNC(=O)[C@H]2CC[C@@H](Nc3nc(N(C)C)c4ccccc4n3)CC2)c1 [Example 1142, cis-4-{[4-(dimethylamino)quinazolin-2-yl]amino}-N-(3,5-dimethylbenzyl)cyclohexanecarboxamide]
0.05 to 0.2	CN(C)c1nc(N[C@H]2CC[C@@H](NC(=O)C(O)c3cc(F)ccc3F)CC2)nc2ccccc12 (relative stereo) [Example 1115, 2-(2,5-difluorophenyl)-N-(cis-4-{[4-(dimethylamino)quinazolin-2-yl]amino}cyclohexyl)-2-hydroxyacetamide]
